Source: patent publication US20170332691A1, “NUTRITIONAL COMPOSITIONS COMPRISING SN-1 (3) MONOACYLGLYCEROLS FOR USE IN THE TREATMENT OF MALABSORPTION OR MALDIGESTION IN INFANTS OR YOUNG CHILDREN” (NESTEC S.A., priority 2014, published 2017)

Legend:
[1] = lipid maldigestion or malabsorption rat model (XENICAL/Orlistat), EPA in red blood cells and tissues; format: in vivo; conditions: for level of EPA incorporated in red blood cells: rats fed with XENICAL, day 7 (FIG. 3)
Method: The concept was tested in a lipid maldigestion or malabsorption rat model. The maldigestion or malabsorption condition was obtained using XENICAL® (ORLISTAT, tetrahydrolipstatin), a pancreatic and gastric lipases inhibitor. Rats were fed during 21 days with long-chain polyunsaturated fatty acid (LC-PUFA) supplements containing mainly eicosapentaenoic (EPA) acid. Fish oil was used as a source of triacylglycerols, and different EPA glycerides were evaluated: […] XENICAL® (ORLISTAT) was given at a level sufficient to decrease lipid absorption by 40%. A group receiving fish oil without XENICAL® (ORLISTAT) was used as a positive control. At different time intervals (D3, D7, […]), the fatty acid profiles of red blood cells and plasma lipids were determined. At the end of the experiment, the fatty acid profiles of different tissues were determined. The main objective was to follow the level of EPA in red blood cells and plasma lipids. The main comparison evaluated was the difference in EPA level between the group receiving EPA glycerides such as EPA-containing sn-1(3) MAG, in combination with XENICAL® (ORLISTAT) and the positive control group (fish oil+XENICAL® (ORLISTAT)).

[2] = clinical study: sn-1(3) MAG vs fish oil (TAG) delivering EPA under XENICAL-induced lipid maldigestion; format: in vivo, human
Method: This clinical study compared the efficacy of sn-1(3) MAG and fish oil (TAG) in delivering EPA in humans under lipid maldigestion conditions induced by XENICAL® (ORLISTAT). The comparison was tested in volunteers treated with XENICAL® to induce lipid maldigestion or not treated with XENICAL® (ORLISTAT). The primary objective was to assess accretion of EPA in erythrocytes over 21 days when consumed as fish oil (TAG) or sn-1(3) MAG. The secondary objectives were to assess accretion of EPA in plasma over 21 days and also to assess the pharmacokinetics of EPA after an acute dose either in the form of sn-1(3) MAG or TAG (AUC in chylomicrons over 10 hours postprandial). See FIG. 4 that describes the clinical study timeline.

| SMILES | level of EPA incorporated in red blood cells ([1]; compared with fish oil + XENICAL, all P values lower than 0.05) | level of EPA incorporated in red blood cells ([1]; compared with fish oil group without XENICAL) | incorporation of LC-PUFAs in tissue ([1]; rats with XENICAL, comparing groups A, B and C) | carrier for EPA (overall conclusion of the clinical trial) ([2]; human subjects treated with XENICAL, vs fish oil (TAG)) | accretion of EPA in erythrocytes after 21 days (chronic effect) ([2]; humans, with XENICAL, in comparison to fish oil and XENICAL, p=0.0001 (FIG. 6)) | accretion of EPA in plasma after 21 days (chronic effect) ([2]; humans, with XENICAL, relative to fish oil and XENICAL, p=0.0003 (FIG. 7)) | EPA incorporation in red blood cells ([1]; rats fed fish oil with XENICAL vs fish oil without XENICAL, day 7) |
| --- | --- | --- | --- | --- | --- | --- | --- |
| CC/C=C\C/C=C\C/C=C\C/C=C\C/C=C\CCCC(=O)OCC(O)CO (stereo not shown) [Sn-1(3)-MAG-EPA, sn-1(3)-monoeicosapentaenoylglycerol] | statistically higher | even higher than the fish oil group | improved | better carrier for EPA than fish oil (TAG) | statistically significant | statistically significant | – |
| CCCCCCCCCCC[C@@H](C[C@@H]1OC(=O)[C@H]1CCCCCC)OC(=O)[C@H](CC(C)C)NC=O [XENICAL® (ORLISTAT), tetrahydrolipstatin, reference compound] | – | – | – | – | – | – | decreases EPA incorporation in red blood cells |
